“Also recorded” adds a separate entry of the source.
Tests used:
Nrf2 = system: Nrf2
Method: The inventors quantified Nrf2 protein in treated cells as a first step towards validating the prediction of the Nrf2 pathway.
Nrf2 phosphorylation on serine 40 is a regulatory modification required for Nrf2 translocation to nucleus and downstream protein activation.
Western Blot Analysis. Protein expression was determined by Western blot analysis. Equal amount of protein from each sample was run in Tris-glycine SDS PAGE gel, followed by transferring to PVDF membrane. After blocking the membrane with 5% milk for 1 hour at room temperature, the membrane was incubated further for 2 hours with antibodies specific for target proteins: Nrf2, pNrf2(S40) from Novus (Littleton, Colo.); Keap1, HO-1, NQO1, GCLc, GCLm and lamin B1 from Cell Signaling (Danvers, Mass.); GAPDH from Santa Cruz (Dallas, Tex.); β-Actin from Thermo Fisher (Waltham, Mass.). The membrane was subsequently incubated with species-specific HRP-conjugated secondary antibody followed by incubation with chemiluminescence substrate and imaging. The band intensity of each of the target proteins was quantified using ImageQuant software (GE Healthcare, Sweden). Western blot analysis on worm lystaes was done similarly. […] Equal amounts of protein were run on the gel and SKN-1 protein level was detected using anti-GFP antibody.
Cell Fractionation. Nuclear and cytoplasmic fractions were separated using the protocol and NE-PER Nuclear and Cytoplasmic Extraction Reagents provided by […]. Briefly, the cells were harvested and washed with ice-cold PBS buffer. The cells were resuspended in ice-cold CER-I buffer and incubated on ice for 10 minutes, followed by addition of CER-II buffer and incubation for one more minute on ice. The lysate was centrifuged at 16,000 g for 5 minutes. The supernatant was the cytoplasmic fraction. The pellet obtained was lysed in ice-cold NER buffer to obtain nuclear protein fractions.

C. elegans = system: C. elegans
Method: The inventors also evaluated locomotion in worms to investigate the health of the rescued animals.
Locomotion Assays. To measure locomotion, worms were subjected to 30 seconds video recording on a Zeiss Axio Zoom. V16 fluorescence dissecting microscope equipped with Axiocam 503 and ZEN2 software. Bending rate (the number of body-bends-per-seconds) was measured by placing live animals on a plate containing M9 buffer, filming for 30 seconds and counting the number of bends. Healthiness of the worms was measured by their bending rate of young, middle aged and aged animals. […] The results were obtained from 3 individual trials.

SH-SY5Y cells [1] = assay: H2O2-EC50 of hydralazine and its analogs (protection from H2O2 stress); format: cell-based; details: Homo sapiens
Method: (§1) To generate intracellular aldehydes, the inventors treated human neuroblastoma cell line (SH-SY5Y) with 100 μM hydrogen peroxide (H2O2) for 24 h. Carbonyl groups were quantified using 2,4-DNPH (dinitrophenylhydrazine) assay.
(§2) Cell Viability and Cytotoxicity Assay. Cell growth was analyzed using the MTT cell viability assay. Briefly, at the end of incubation/treatment, MTT reagent was diluted in culture medium and aliquoted into each well. After incubation for 2 hours, the medium was aspirated and DMSO was aliquoted into each well to disrupt the cells and dissolve the intracellular MTT dyes. Absorbance was read at 570 nm wavelength in a 96-well plate reader. Cell toxicity was detected using a LDH cell toxicity assay kit (Promega, Fitchburg Wis.). This is a coupled enzymatic assay that detects a visible color signal initially described by Nachlas et. al. The reagent contained excess concentrations of lactate and NAD+as substrates to drive the LDH reaction and produce NADH. In the presence of diaphorase, NADH drives the enzyme-catalyzed conversion of iodonitro-tetrazolium violet to a red formazan product. Briefly, DMEM medium was withdrawn from each well of the plate after treatment and briefly centrifuged to get rid of floating cells or cell debris. Then, the medium supernatant was mixed with equal volume of substrate/enzyme mixture included in the kit (lactate, NAD+, diaphorase and iodonitro-tetrazolium violet), followed by incubation at room temperature for 15 minutes before the addition of acetic acid to cease the reaction. The absorbance was read at 490 nm in a 96-well plate reader. […] Cell viability assay was performed using CellTiter-Glo assay.

[2] = system: glutathione S-transferase-4 (GST-4)
Method: The inventors measured the expression of glutathione S-transferase-4 (GST-4), a downstream target of SKN-1, in a transgenic strain (CL2166) expressing GFP driven by the GST-4 promoter (Kahn et al., 2008).
Imaging. To measure the GFP intensity, synchronized populations of worms were anesthetized and arranged on agarose pad. The intestinal SKN-1::GFP was assayed by confocal microscopy (X40) (Nikon A1R, Nikon Instruments Inc., Melville, N.Y., USA) (FIG. 5A). The quantification of intestinal SKN-1::GFP was performed with ImageJ (FIG. 5B). The ASI SKN-1::GFP was assayed by a Zeiss Axiolmager M2 microscope equipped with a Hamamatsu Flash 4.0 Scientific c-mos camera and Zen2 software (X40) (FIG. 5D). The quantification of ASI SKN-1::GFP was performed with ImageJ using a sliding paraboloid algorithm for reducing the background followed by edge detection. The t-test was conducted with Welsh correction since the standard deviations were not equal (FIG. 5E). The GSTp::GFP intensity was measured same as ASI SKN-1::GFP but with ×5 magnification. The GSTp::GFP quantification was done using the whole worm signal following the same protocol as intestinal SKN-1::GFP (FIG. 5G).

Keap1-Nrf2 = Keap1-Nrf2 (Homo sapiens, UniProt Q14145); details: data not shown
GSK3β and Tau = assay: p-GSK3β and p-Tau in Aβ (1-42) treated primary neurons; details: 1 μM, 24 hours
Method: Cells were transfected with tdTomato (red) plasmid to visualize structural and morphological changes of neurons. Nuclei were stained with DAPI (blue) scale bar=10 μm. […] Densitometry values were normalized using actin as an internal control.
Immunofluorescence assays were performed and the phosphorylation status of GSK3β and Tau proteins were analyzed in primary cells using pGSK3β (S9) and pTau (S396) antibodies. Primary cortical neurons were isolated from the cortex of 0 day pups, cultured for two weeks, and were transfected with tdTomato plasmid to visualize structural and morphological changes of neurons. […] At the end of the treatment cells were fixed and immunostained with respective antibodies.

[3] = system: primary cortical neuronal cells; details: 0.1, 1, 10 μM, 1 μM rotenone, 24 hours
Method: (§3) The inventors first measured the cell proliferation to evaluate the stress caused by expression of tau fibrils in aggregate-positive and negative cells (FIG. 6A). […] The inventors also measured the concentration of superoxide ions (O2-), a detrimental byproduct of oxidative phosphorylation, as an ROS representative. […] The inventors next measured expression of Nrf2 and HO-1 in the same cells (FIG. 6C). […] Aggregate-positive and -negative KD cells were treated with 200 μM H2O2 for 24 h. Cytotoxicity was measured as release of LDH.
as §2

[4] = system: HEK293 cells overexpressing tau residues 244 to 372, with mutations of P301L and V337M
Method: as §3, §2

SH-SY5Y cells [5] = system: SH-SY5Y cells
Method: Viability of the cells was measured by Cell Titer Glo after 24 and 48 hours of treatments. […] Values are presented as mean±SDE (*p<0.05, **p<0.01).
SH-SY5Y neuroblastoma cells were treated with doxorubicin (0.2 μM), a cytotoxic compound that depletes the NAD pool of the cells and changes morphological features that mimic neurodegeneration such as loss of neuritis (8, 9).

[6] = data not shown
SH-SY5Y cells [7] = assay: MTT cell viability under H2O2 induced stress; format: cell-based, human; details: 100 μM H2O2 24 h; 10 and 25 μM compound; listed as hydralazine
Method: as §1
Cell Viability and Cytotoxicity Assay. Cell growth was analyzed using the MTT cell viability assay. Briefly, at the end of incubation/treatment, MTT reagent was diluted in culture medium and aliquoted into each well. After incubation for 2 hours, the medium was aspirated and DMSO was aliquoted into each well to disrupt the cells and dissolve the intracellular MTT dyes. Absorbance was read at 570 nm wavelength in a 96-well plate reader. Cell toxicity was detected using a LDH cell toxicity assay kit (Promega, Fitchburg Wis.). This is a coupled enzymatic assay that detects a visible color signal initially described by Nachlas et. al. The reagent contained excess concentrations of lactate and NAD+as substrates to drive the LDH reaction and produce NADH. In the presence of diaphorase, NADH drives the enzyme-catalyzed conversion of iodonitro-tetrazolium violet to a red formazan product. Briefly, DMEM medium was withdrawn from each well of the plate after treatment and briefly centrifuged to get rid of floating cells or cell debris. […] The absorbance was read at 490 nm in a 96-well plate reader. […]

Keap1-Nrf2, sequence (Q14145 whole entry): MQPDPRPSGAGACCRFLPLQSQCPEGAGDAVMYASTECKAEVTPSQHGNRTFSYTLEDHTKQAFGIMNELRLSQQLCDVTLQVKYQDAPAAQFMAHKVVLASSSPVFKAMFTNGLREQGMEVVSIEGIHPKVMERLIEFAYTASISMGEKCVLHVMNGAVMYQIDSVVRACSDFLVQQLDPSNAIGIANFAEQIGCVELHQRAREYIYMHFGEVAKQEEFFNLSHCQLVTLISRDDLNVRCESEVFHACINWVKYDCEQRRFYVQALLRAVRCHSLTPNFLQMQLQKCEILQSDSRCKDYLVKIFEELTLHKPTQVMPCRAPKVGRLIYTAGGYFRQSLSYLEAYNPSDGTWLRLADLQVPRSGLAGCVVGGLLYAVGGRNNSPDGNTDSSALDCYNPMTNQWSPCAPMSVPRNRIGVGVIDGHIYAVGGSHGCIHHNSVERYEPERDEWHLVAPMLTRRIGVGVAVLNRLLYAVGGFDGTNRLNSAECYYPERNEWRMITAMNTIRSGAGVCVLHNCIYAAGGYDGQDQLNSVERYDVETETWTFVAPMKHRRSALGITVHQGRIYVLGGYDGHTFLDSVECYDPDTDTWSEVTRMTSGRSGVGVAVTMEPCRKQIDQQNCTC
Method for primary cortical neurons: For each group (control, 0.5 μM Hyd, 1 μM Hyd, 2 μM Hyd and 2 μM Dimebon) 10 images from three replicates were analyzed. Total numbers of spines, stubby, thin, and mushroom were counted by NeuronStudio software for each image. The mean value and standard deviation of numbers for each group were calculated. P value was calculated with non-parametric T-test. All values are mean±SD (*p<0.05, **p<0.01).
Primary neuronal cells from cortex were visualized with td-Tomato (FIG. 21A). Cells were treated with 500 nM Aβ-42 oligomers or vehicle (Ctrl). Spine density and morphology were measured per 10 micron by confocal imaging. […] Mushroom and thins are indicated with an arrow. […] Dimebon, a known neuroprotective compound, was used as positive control in all experiments. Data were collected from three batches of cultures for all treatments and Ctrl. For spine quantification n=8-10 (for each treatment per one experiment) neurons were analyzed by Neuronstudio. Scale bar corresponds to 5 μm. Experiment was repeated three times. Values are shown as mean±SEM. (*p<0.05, **p<0.01, ***p<0.001, ****p<0.0001).
Primary neuronal cells were isolated from the cortex of mice pups on day 0 (P0) and cultured in 24 well plates covered by poly-D-lysine coated coverslips with a density of 1.0×105 for 7 days. Cells were then transfected with tdTomato plasmid and incubated for 14 additional days (4). […] Dimebon (2 μM) was used as a positive control. After 24 hours of treatment, cells were fixed and scanned with a Zeiss microscope at 100× resolution for visualizing spines on the dendrites. The images were analyzed using Neuronstudio software (5). […] Structural formation and the maturation of spines were also analyzed.

Structure (SMILES): NNc1nncc2ccccc12 [Hydralazine]
- increase of phosphorylation of Nrf2 on serine 40 in the nuclear compartment (Nrf2; SH-SY5Y): 25%
- phosphorylation of cytosolic Nrf2 (Nrf2; SH-SY5Y): no change was observed
- increase in Nrf2 level compared to untreated cells (Nrf2; SH-SY5Y, 10 μM, 24 h, Western blotting): about 20%
- cytosolic Nrf2 fraction (Nrf2; SH-SY5Y, 10, 20 μM): remained unchanged
- nuclear localization of Nrf2 (Nrf2; SH-SY5Y, 10, 20 μM): significantly increased
- locomotor performance in skn-1(zu135) animals (C. elegans; 4, 8, 12 days): did not improve
- locomotor performance of young (5 days), middle age (10 days), and old (15 days) N2 animals (C. elegans; N2): significant improvement
- locomotor performance of pre-treated animals exposed to rotenone (C. elegans; N2, 100 μM, 50 μM rotenone 6 h): superior locomotor performance
- EC50 (SH-SY5Y cells [1]): 6.78 µM
- GST-4p::GFP signal in worms fed skn-1(RNAi) or skn-1(zu67) ([2]; 100 μM, 72 h): did not increase GFP signal
- GST-4p::GFP signal ([2]; strain CL2166, 48 h after treatment): significant increase in the GFP signal
- direct binding and interruption of Keap1-Nrf2 interaction (Keap1-Nrf2): ruled out the direct binding hypothesis
- pGSK3β (S9) in primary cells (GSK3β and Tau): marked increase
- pTau in primary cells (GSK3β and Tau): reduced level of pTau
- viability of primary neuronal cells under rotenone [3]: rescues primary neuronal cells from rotenone toxicity in a dose-dependent manner
- cell viability under rotenone ([4]; 20 μM, 1 μM rotenone, 24 h): protects both aggregate-positive and negative cells
- cell viability in Nrf2 KD cell line ([4]; Nrf2 knockdown tau cells): did not improve cell viability
- cell growth of aggregate-positive cells ([4]; tau aggregate-positive HEK293): improved
- increase of NAD level of untreated cell (SH-SY5Y cells [5]; 48 hours): 50%
- NAD level in doxorubicin treated cells (SH-SY5Y cells [5]; doxorubicin 0.2 μM): significant effect on restoring NAD level
- protection against doxorubicin induced cell death (SH-SY5Y cells [5]; doxorubicin 0.2 μM, 0, 10, 20 μM, 24 and 48 hours): protects cells in a dose-dependent manner
- spine density after Aβ-42 oligomers (primary cortical neurons; 1 μM, 500 nM Aβ-42, 24 hours): restoration of spine density
- numbers of spines in a 10 micron length of dendrite (primary cortical neurons; 0.5, 1.0, 2.0 μM, 24 hours): significantly increased
- stubby formation and mushroom spines (primary cortical neurons; 0.5, 1.0, 2.0 μM, 24 hours): increased the stubby formation and numbers of matured spines
- pro-oxidant environment (DCFH-DA intensity) [6]: does not create a mild pro-oxidant environment
- cell viability under H2O2 induced cell death (MTT) (SH-SY5Y cells [7]): significantly improved; also recorded: provided protection in a dose-dependent manner

Source: patent US20190298717A1 (BOARD OF REGENTS, THE UNIVERSITY OF TEXAS SYSTEM, priority 2016, published 2019)
